Results reported in patent US20070082915A1 (priority 2003, published 2007).
Where two headings read alike, the source gives them in different places.

Test system: Pyricularia oryzae
Type: in vivo
Conditions: individual active compound, protective spray, inoculated next day, rated after 6 days

SMILES	Efficacy in % of the untreated control (1 ppm in the spray liquor)	Efficacy in % of the untreated control (4 ppm in the spray liquor)
CC1CCN(c2c(-c3c(F)cccc3Cl)c(Cl)nc3ncnn23)CC1 [A]	0%	11%
CC1CCN(c2c(-c3c(F)cc(F)cc3F)c(Cl)nc3ncnn23)CC1 [I, 5-chloro-7-(4-methylpiperidin-1-yl)-6-(2,4,6-trifluorophenyl)-[1,2,4]triazolo[1,5-a]pyrimidine]	11%	33%
CCCC1COC(Cn2cncn2)(c2ccc(Cl)cc2Cl)O1 (centres unmarked) [II, 1-[2-(2,4-dichlorophenyl)-4-propyl-[1,3]dioxolan-2-ylmethyl]-1H-[1,2,4]triazole]	0%	0%
CC(Nc1c(-c2c(F)cc(F)cc2F)c(Cl)nc2ncnn12)C(F)(F)F (centres unmarked) [B]	11%	33%
